Source: US20230266302A1, “SYNTHESIS AND USE OF N-BENZYL SULFONAMIDES” (THE UNIVERSITY OF TULSA, priority 2020, published 2023)

Key:
Assay in all cases: ATP level assay (CellTiter-Glo), percent of control
Format in all cases: cell-based
MDA-MB (breast cancer) = conditions: two hour incubation; for activity at 100 µM: 2 h, compound alone, control DMSO, read-out: POC (percent of control) MDA-MB
MCF7 (breast cancer) = conditions: two hour incubation; for activity at 100 µM: Homo sapiens, MCF7, 2 h, compound alone, control DMSO, read-out: POC (percent of control) MCF7
[1] = system: BxPC3 (pancreatic cancer); conditions: two hour incubation; for activity at 100 µM: Homo sapiens, BXPC-3, 2 h, compound alone, control DMSO, read-out: POC (percent of control) BxPC3
[2] = system: MCF10A (non-cancerous breast); conditions: two hour incubation; for activity at 100 µM: Homo sapiens, MCF-10A, 2 h, compound alone, control DMSO, read-out: POC (percent of control) MCF10A
T47D (breast cancer) = conditions: two hour incubation; for activity at 100 µM: Homo sapiens, T47D, 2 h, compound alone, control DMSO, read-out: POC (percent of control) T47D
PC3 (prostate cancer) = conditions: two hour incubation; for activity at 100 µM: 2 h, compound alone, control DMSO, read-out: POC (percent of control) PC3
NCI-H196 (lung cancer) = conditions: two hour incubation; for activity at 100 µM: NCI-H196, 2 h, compound alone, control DMSO, read-out: POC (percent of control) NCI-H196
HeLa (cervical cancer) = conditions: two hour incubation; for activity at 100 µM: Homo sapiens, HeLa, 2 h, compound alone, control DMSO, read-out: POC (percent of control) HeLa
H293 (kidney cancer) = conditions: two hour incubation; for activity at 100 µM: 2 h, compound alone, control DMSO, read-out: POC (percent of control) H293
SkBr3 (breast cancer) = conditions: two hour incubation; for activity at 100 µM: Homo sapiens, SK-BR-3, 2 h, compound alone, control DMSO, read-out: POC (percent of control) SkBr3
HDF (normal cells) = conditions: two hour incubation; for activity at 100 µM: 2 h, compound alone, control DMSO, read-out: POC (percent of control) HDF
[3] = compound 100 uM + 2DG (about 10-20 mM)
[4] = compound 100 uM + rotenone (approximately 1.25 μM)

| Compound | activity at 100 µM (MDA-MB (breast cancer)) [%] | POC (percent of control) MDA-MB (MDA-MB (breast cancer); [3]) | POC (percent of control) MDA-MB (MDA-MB (breast cancer); [4]) | activity at 100 µM (MCF7 (breast cancer)) [%] | POC (percent of control) MCF7 (MCF7 (breast cancer); [3]) | POC (percent of control) MCF7 (MCF7 (breast cancer); [4]) | activity at 100 µM [1] [%] | POC (percent of control) BxPC3 [1, 3] | POC (percent of control) BxPC3 [1, 4] | activity at 100 µM [2] [%] | POC (percent of control) MCF10A [2, 3] | POC (percent of control) MCF10A [2, 4] | activity at 100 µM (T47D (breast cancer)) [%] | POC (percent of control) T47D (T47D (breast cancer); [3]) | POC (percent of control) T47D (T47D (breast cancer); [4]) | activity at 100 µM (PC3 (prostate cancer)) [%] | POC (percent of control) PC3 (PC3 (prostate cancer); [3]) | POC (percent of control) PC3 (PC3 (prostate cancer); [4]) | activity at 100 µM (NCI-H196 (lung cancer)) [%] | POC (percent of control) NCI-H196 (NCI-H196 (lung cancer); [3]) | also measured |
| --- | --- | --- | --- | --- | --- | --- | --- | --- | --- | --- | --- | --- | --- | --- | --- | --- | --- | --- | --- | --- | --- |
| Cn1cc(CNS(=O)(=O)c2ccc(Cl)cc2)cn1 [Compound 11, 4-chloro-N-[(1-methyl-1H-pyrazol-4-yl)methyl]benzenesulfonamide] | 95.3 | 82.4% of control | 97.9% of control | 118 | 98.4% of control | 94.6% of control | 99.2 | 83.8% of control | 78% of control | 95.4 | 95.8% of control | 93.7% of control | 59.3 | 90.4% of control | 99.6% of control | 113 | 94.6% of control | 96.1% of control | 95.2 | 114.7% of control | POC (percent of control) NCI-H196 (NCI-H196 (lung cancer); [4]): 88.9% of control; activity at 100 µM (HeLa (cervical cancer)): 103%; POC (percent of control) HeLa (HeLa (cervical cancer); [3]): 117.6% of control; POC (percent of control) HeLa (HeLa (cervical cancer); [4]): 96.4% of control; activity at 100 µM (H293 (kidney cancer)): 92.8%; POC (percent of control) H293 (H293 (kidney cancer); [3]): 87.4% of control; POC (percent of control) H293 (H293 (kidney cancer); [4]): 88.3% of control; activity at 100 µM (SkBr3 (breast cancer)): 101%; POC (percent of control) SkBr3 (SkBr3 (breast cancer); [3]): 99.7% of control; POC (percent of control) SkBr3 (SkBr3 (breast cancer); [4]): 95.3% of control; activity at 100 µM (HDF (normal cells)): 77.4%; POC (percent of control) HDF (HDF (normal cells); [3]): 101.3% of control; POC (percent of control) HDF (HDF (normal cells); [4]): 89.8% of control |
| Cn1ncc2cc(CNS(=O)(=O)c3ccc(Cl)cc3)ccc21 [Compound 10, 4-chloro-N-[(1-methyl-1H-indazol-5-yl)methyl]benzenesulfonamide] | 94.1 | 86.7% of control | 87.4% of control | 115 | 121.2% of control | 89.4% of control | 66.3 | 62.9% of control | 54.4% of control | 92 | 100.4% of control | 83.5% of control | 63.5 | 76.6% of control | 91.4% of control | 115 | 97.8% of control | 98.7% of control | 106 | 90.8% of control | POC (percent of control) NCI-H196 (NCI-H196 (lung cancer); [4]): 103.7% of control; activity at 100 µM (HeLa (cervical cancer)): 106%; POC (percent of control) HeLa (HeLa (cervical cancer); [3]): 91.3% of control; POC (percent of control) HeLa (HeLa (cervical cancer); [4]): 85.5% of control; activity at 100 µM (H293 (kidney cancer)): 106%; POC (percent of control) H293 (H293 (kidney cancer); [3]): 84% of control; POC (percent of control) H293 (H293 (kidney cancer); [4]): 70.8% of control; activity at 100 µM (SkBr3 (breast cancer)): 90.8%; POC (percent of control) SkBr3 (SkBr3 (breast cancer); [3]): 98% of control; POC (percent of control) SkBr3 (SkBr3 (breast cancer); [4]): 107.3% of control; activity at 100 µM (HDF (normal cells)): 88.6%; POC (percent of control) HDF (HDF (normal cells); [3]): 92.7% of control; POC (percent of control) HDF (HDF (normal cells); [4]): 82.2% of control |
| O=S(=O)(NCc1cscn1)c1ccc(Cl)cc1 [Compound 18, 4-chloro-N-(1,3-thiazol-4-ylmethyl)benzenesulfonamide] | 102 | 86.1% of control | 100% of control | 110 | 137.3% of control | 82% of control | 100 | 85.4% of control | 94.3% of control | 119 | 92.2% of control | 86.9% of control | 95.7 | 82.8% of control | 100.6% of control | 74 | 94% of control | 97.2% of control | 97.4 | 108.3% of control | POC (percent of control) NCI-H196 (NCI-H196 (lung cancer); [4]): 87.3% of control; activity at 100 µM (HeLa (cervical cancer)): 99.5%; POC (percent of control) HeLa (HeLa (cervical cancer); [3]): 100% of control; POC (percent of control) HeLa (HeLa (cervical cancer); [4]): 97.3% of control; activity at 100 µM (H293 (kidney cancer)): 67.3%; POC (percent of control) H293 (H293 (kidney cancer); [3]): 96.3% of control; POC (percent of control) H293 (H293 (kidney cancer); [4]): 67.4% of control; activity at 100 µM (SkBr3 (breast cancer)): 112%; POC (percent of control) SkBr3 (SkBr3 (breast cancer); [3]): 107.2% of control; POC (percent of control) SkBr3 (SkBr3 (breast cancer); [4]): 96.6% of control; activity at 100 µM (HDF (normal cells)): 96.1%; POC (percent of control) HDF (HDF (normal cells); [3]): 93% of control; POC (percent of control) HDF (HDF (normal cells); [4]): 95.7% of control |
| Cc1ccc(S(=O)(=O)NCc2ccc3c(cnn3C)c2)cc1 [Compound 9, 4-methyl-N-[(1-methyl-1H-indazol-5-yl)methyl]benzenesulfonamide] | 95.6 | 91.7% of control | 114% of control | 117 | 75.8% of control | 95.1% of control | 114 | 57.6% of control | 118.5% of control | 89.6 | 88.3% of control | 123.7% of control | 50.3 | 58.9% of control | 103.5% of control | 90.4 | 89.3% of control | 101.7% of control | 93.1 | 86.1% of control | POC (percent of control) NCI-H196 (NCI-H196 (lung cancer); [4]): 117.7% of control; activity at 100 µM (HeLa (cervical cancer)): 97.3%; POC (percent of control) HeLa (HeLa (cervical cancer); [3]): 80.5% of control; POC (percent of control) HeLa (HeLa (cervical cancer); [4]): 89.8% of control; activity at 100 µM (H293 (kidney cancer)): 83.3%; POC (percent of control) H293 (H293 (kidney cancer); [3]): 76.6% of control; POC (percent of control) H293 (H293 (kidney cancer); [4]): 88.5% of control; activity at 100 µM (SkBr3 (breast cancer)): 74.1%; POC (percent of control) SkBr3 (SkBr3 (breast cancer); [3]): 89.9% of control; POC (percent of control) SkBr3 (SkBr3 (breast cancer); [4]): 115.5% of control; activity at 100 µM (HDF (normal cells)): 86.4%; POC (percent of control) HDF (HDF (normal cells); [3]): 88.5% of control; POC (percent of control) HDF (HDF (normal cells); [4]): 107.6% of control |
| Cc1ccc(S(=O)(=O)NCc2cnccn2)cc1 [Compound 16, 4-methyl-N-(pyrazin-2-ylmethyl)benzenesulfonamide] | 106 | 104.5% of control | 92.7% of control | 123 | 93.3% of control | 107.5% of control | 103 | 95.4% of control | 72.7% of control | 113 | 118.9% of control | 86.2% of control | 91.1 | 111.6% of control | 99.3% of control | 109 | 113.1% of control | 95.1% of control | 110 | 99.2% of control | POC (percent of control) NCI-H196 (NCI-H196 (lung cancer); [4]): 97.6% of control; activity at 100 µM (HeLa (cervical cancer)): 96.8%; POC (percent of control) HeLa (HeLa (cervical cancer); [3]): 106.8% of control; POC (percent of control) HeLa (HeLa (cervical cancer); [4]): 102.3% of control; activity at 100 µM (H293 (kidney cancer)): 80.1%; POC (percent of control) H293 (H293 (kidney cancer); [3]): 80.7% of control; POC (percent of control) H293 (H293 (kidney cancer); [4]): 81.6% of control; activity at 100 µM (SkBr3 (breast cancer)): 91.9%; POC (percent of control) SkBr3 (SkBr3 (breast cancer); [3]): 81.4% of control; POC (percent of control) SkBr3 (SkBr3 (breast cancer); [4]): 104% of control; activity at 100 µM (HDF (normal cells)): 94.3%; POC (percent of control) HDF (HDF (normal cells); [3]): 95.6% of control; POC (percent of control) HDF (HDF (normal cells); [4]): 98.3% of control |
